pIC50: −log10 of the molar value.
Tests used:
Format in all cases: biochemical
[1] = molecular target: JNK3 (Homo sapiens (Human), UniProt P53779); test: Measurement of JNK3 enzyme activity (33P-ATP filter-binding); details: human JNK3, ATP 10 μM, ATF2 3 μM
Protocol: The changes in JNK3 enzyme activity resulting from being treated with the inventive imidazole derivative (Formula 1) shown in a following Table 1 were identified through IC50.
First of all, after a substrate was inserted into a prepared base reaction buffer solution (20 mM Hepes ([…]), 10 mM MgCl2, 1 mM EGTA, 0.02% Brij35, 0.02 mg/ml BSA, 0.1 mM Na3VO4, 2 mM DTT, 1% DMSO), a human JNK3 enzyme was added into a prepared substrate solution and then mixed together. As the substrate, ATP (10 μM) and ATF2 (3 μM) were used, among which the ATP was also used as a common substrate. Then, compounds of Examples 1-18 and 25-36, which were dissolved in 100% DMSO, were inserted into an enzyme reaction solution, and then cultured at room temperature for 20 minutes. Then, ^33P-ATP was inserted into the above reaction mixture solution to initiate a reaction, then cultured at room temperature for 2 hours, and then an enzyme activity was detected by means of a filter-binding method.
Particularly, after each 25 μl of the resulting solution was slowly spotted on P81 paper, it was inserted into a scintillation vial, and washed with 0.75% phosphoric acid four times for 10 minutes each, and with acetone once for 5 minutes. 5 ml of scintillation cocktail was inserted into the above scintillation vial and a resulting signal was read by means of a scintillation counter.
IC50 values of compounds of Examples 1-18 and 25-36 with regard to JNK3 enzyme activity were shown in a following Table 2.

[2] = molecular target: ABL1 (Homo sapiens (Human), UniProt P00519); test: Kinase profiling service (Reaction Biology Corp.); details: compound 10 μM
ABL1, sequence (P00519 whole entry): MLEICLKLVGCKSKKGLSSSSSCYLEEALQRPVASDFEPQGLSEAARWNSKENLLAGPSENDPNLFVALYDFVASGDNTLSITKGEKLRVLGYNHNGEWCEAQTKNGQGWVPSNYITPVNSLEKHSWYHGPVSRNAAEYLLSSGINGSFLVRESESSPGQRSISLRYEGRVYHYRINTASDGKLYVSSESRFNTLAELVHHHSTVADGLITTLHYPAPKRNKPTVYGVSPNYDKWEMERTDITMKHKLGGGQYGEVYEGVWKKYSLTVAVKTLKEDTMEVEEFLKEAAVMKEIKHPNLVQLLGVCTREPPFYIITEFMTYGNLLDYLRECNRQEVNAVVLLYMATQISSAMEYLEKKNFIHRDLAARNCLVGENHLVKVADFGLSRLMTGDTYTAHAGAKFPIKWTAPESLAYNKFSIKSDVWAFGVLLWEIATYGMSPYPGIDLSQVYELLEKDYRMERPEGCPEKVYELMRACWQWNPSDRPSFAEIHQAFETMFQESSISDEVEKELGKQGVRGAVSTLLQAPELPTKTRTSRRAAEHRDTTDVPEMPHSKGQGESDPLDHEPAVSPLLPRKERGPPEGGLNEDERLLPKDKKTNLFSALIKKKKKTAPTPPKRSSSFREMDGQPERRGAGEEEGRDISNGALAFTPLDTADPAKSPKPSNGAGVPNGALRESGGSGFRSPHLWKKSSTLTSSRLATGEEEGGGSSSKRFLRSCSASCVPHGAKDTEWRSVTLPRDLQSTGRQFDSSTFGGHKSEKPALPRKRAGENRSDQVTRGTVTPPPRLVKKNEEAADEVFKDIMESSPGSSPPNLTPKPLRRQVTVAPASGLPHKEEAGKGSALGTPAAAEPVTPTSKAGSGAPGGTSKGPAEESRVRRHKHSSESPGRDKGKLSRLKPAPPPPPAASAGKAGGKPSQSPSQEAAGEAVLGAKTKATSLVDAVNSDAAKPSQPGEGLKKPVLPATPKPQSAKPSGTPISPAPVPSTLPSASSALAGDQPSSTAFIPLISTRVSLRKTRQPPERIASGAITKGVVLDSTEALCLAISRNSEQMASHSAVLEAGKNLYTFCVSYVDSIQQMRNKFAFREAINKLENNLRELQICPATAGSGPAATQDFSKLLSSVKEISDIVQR
Protocol: (§1) An inhibitory activity of the compound (10 μM) of Example 34 against various protein kinases was measured by means of a kinase profiling service (ICso profiler express) of Reaction Biology Corp., wherein ICso, a concentration at which JNK enzyme activity was inhibited 50%, was also measured by sequentially reducing a concentration of the compound.

[3] = system: various protein kinases; test: Inhibitory activity against various protein kinases (selectivity, whole panel); details: kinase panel, compound 10 μM
Protocol: as §1
IC50 values of the compound of Example 34 with regard to various protein kinases were shown in a following Table 3.

JNK3, sequence (P53779 whole entry): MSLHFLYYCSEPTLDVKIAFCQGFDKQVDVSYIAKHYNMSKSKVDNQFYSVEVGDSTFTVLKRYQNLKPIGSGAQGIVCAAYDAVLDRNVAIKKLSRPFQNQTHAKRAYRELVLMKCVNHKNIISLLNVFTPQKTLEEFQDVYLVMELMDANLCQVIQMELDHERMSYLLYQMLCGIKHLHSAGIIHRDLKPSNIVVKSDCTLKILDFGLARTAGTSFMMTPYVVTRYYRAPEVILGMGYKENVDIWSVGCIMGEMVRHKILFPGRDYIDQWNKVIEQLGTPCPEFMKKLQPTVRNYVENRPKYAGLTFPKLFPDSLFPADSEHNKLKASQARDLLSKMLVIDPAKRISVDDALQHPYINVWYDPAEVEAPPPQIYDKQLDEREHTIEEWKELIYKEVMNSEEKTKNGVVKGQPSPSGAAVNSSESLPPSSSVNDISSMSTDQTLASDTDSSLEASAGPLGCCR

**Q.** With N#CCc1cnc(-c2ccc3ccccc3c2)n1-c1ccnc(NC2CCCN(C(=O)C3CC3)C2)n1 (stereo not shown) [Example 34, 2-(1-(2-(1-(cyclopropanecarbonyl)piperidine-3-ylamino)pyrimidine-4-yl)-2-(naphthalene-2-yl)-1H-imidazole-5-yl)acetonitrile] as the compound, how does the pIC50 [1] read?
**A.** > 7.52

**Q.** And the “% Enzyme Activity (relative to DMSO controls)” value ([2]; Data 1 and Data 2)?
**A.** 94.12%

**Q.** What about the remaining activity at 10 µM ([2]; Data 1 and Data 2, read-out: % Enzyme Activity (relative to DMSO controls)) of the same compound?
**A.** 95.3%

**Q.** What about the “selectivity for JNK1/2/3 over other protein kinases (in words)” value [3] of the same compound?
**A.** selectively inhibiting an activity of JNK1/2/3

From patent US10301291B2, “Imidazole derivative having JNK inhibitory activity and use thereof” (SAMJIN PHARMACEUTICAL CO., LTD., priority 2016, dated 2019)
